Assay results: patent US20230201226A1, “COMBINATION THERAPY FOR REDUCING DRUG-INDUCED NEPHROTOXICITY, DYSLIPIDEMIA AND HYPERGLYCEMIA” (Yissum Research Development Company of the Hebrew …, priority 2020, published 2023)

How the values were obtained:
[1] = system: Human primary proximal tubule cells (hPTC); test: Phospholipidosis (Red Phospholipidosis reagent) and neutral lipid (Green LipidTox) staining of kidney cells exposed to kidney damaging agents; format: cell-based; settings: 48 hours
Description: Testing the effect of combination therapy on human kidney cells exposed to kidney damaging agents—Human primary proximal tubule cells (hPTC) were seeded at density of 10,000 cells/cm^2 in a black 96-well plate. When the cells reach 80% density, treatments were induced. […] The drugs were induced either alone (controls) or in combination with Empagliflozin (SGLT2i) at 5 μM or Fenofibrate at 20 μM, themselves in combination with Quercetin at 20 μM. All different solutions included 1× Red Phospholipidosis staining reagent as well. hPTC were incubated with the different combinations for 48 hours at 37° C. 5% CO2 […]. After 48 hours, the media were removed and replaced with Green LipidTox stain to stain for neutral lipids in green (diluted at 1:200 in hPTC medium). After 45 minutes of incubation at 37° C., the plate was mounted onto a Zeiss epifluorescent microscope for quantification. Each condition was tested in three biological replicates, and light settings were the same for all the images. Images were analyzed with ImageJ. […]

[2] = system: human proximal tubule cells (hPTCs); settings: 48 hours

Row | Compound | prevention of Cyclosporine A, Cisplatin and Gentamicin induced lipotoxicity by co-administration ([1]; Cyclosporine A 1 μM, Cisplatin 1 μM or Gentamicin 1 mM, Empagliflozin 5 μM or Fenofibrate 20 μM) | survival of human proximal tubule cells (hPTCs) ([2]; co-administration with 1 mM gentamicin, Empagliflozin 5 μM or Fenofibrate 20 μM) | induced lipotoxicity of the kidneys (phospholipids and neutral lipids) ([1]; kidney damaging agent alone: Cyclosporine A 1 μM, Cisplatin 1 μM, Gentamicin 1 mM) | cell death ([2]; hPTC, 1 mM gentamicin by itself)
1 | OC[C@H]1O[C@@H](c2ccc(Cl)c(Cc3ccc(O[C@H]4CCOC4)cc3)c2)[C@H](O)[C@@H](O)[C@@H]1O [empagliflozin, Empagliflozin] | prevented | dramatically increased the survival | – | –
2 | Gentamicin | – | – | induced lipotoxicity | induced massive cell death
